Data from ChEMBL document CHEMBL5727850, “Haloallylamine indole and azaindole derivative inhibitors of lysyl oxidases and uses thereof” (2020).

Assay: Inhibition Assay: LOX and LOXL2: Lysyl oxidase (LOX) is an extracellular copper dependent enzyme which oxidizes peptidyl lysine and hydroxylysine residues in collagen and lysine residues in elastin to produce peptidyl alpha-aminoadipic-delta-semialdehydes. […] There are five LOX family members; these are LOX, LOXL1, LOXL2, LOXL3 and LOXL4. LOX and LOXL family members can be acquired as recombinant active proteins from commercial sources, or extracted from animal tissues like bovine aorta, tendons, pig skin; or prepared from cell cultures. The inhibitory effects of the compounds of the present invention were tested against the given LOX-LOXL preparation using a high-throughput coupled colorimetric method (Holt A. and Palcic M., A peroxidase-coupled continuous absorbance plate-reader assay for flavin monoamine oxidases, copper-containing amine oxidases and related enzymes. Nat. Protoc. 2006; 1: 2498-2505). The assay was developed using either 384 or 96 well format. Briefly, in a standard 384 well plate assay 25 μL of a dilution of any of the isoenzymes and orthologues in 1.2 M urea, 50 mM sodium borate buffer (pH 8.2) were added into each well in the presence of 1 μM mofegiline and 0.5 mM pargyline (to inhibit SSAO and MAO-B and MAO-A, respectively). […]

With `Cc1c(-c2cccc(S(=O)(=O)N(C)C)c2)c2cc(C(=O)N(C)C)ccc2n1C/C(F)=C/CN` the IC50 was greater than 300 nM.

With `Cc1c(-c2cccc(S(=O)(=O)N(C)C)c2)c2nc(C(=O)N(C)C)ccc2n1C/C(F)=C/CN` the IC50 was greater than 300 nM.
